Earlier results, collected in US20060139426A1, “Ink, ink set, processing solution, recording method, recording medium, ink tank, and recording device” (Fuji Xerox Co., Ltd., priority 2004, published 2006).

pKa: 2.4
Structure (SMILES): O=C(O)c1ccco1 [2-Furancarboxylic acid]
